The results in this text go back to US20220089663A1, “PROTEINS AND FLUOROPHORE-CONTAINING COMPOUNDS SELECTIVE FOR NaV1.7” (MEMORIAL SLOAN KETTERING CANCER CENTER, priority 2019, published 2022).

For series [1], the target named is T1, hNav1.7 (Homo sapiens, UniProt Q15858).
T1 construct: host or cells: HEK293
Kind of series: conventional whole cell patch clamp, kinetic studies on hNav1.7. Format: cell-based. As to the method:
Conventional patch clamp. Coverslips containing cells of HEK293 stable expressing hNav1.7 α and human β1 subunits were placed in a recording chamber on the stage of an inverted microscope with the extracellular solution containing 140 mM NaCl, 2 mM CaCl2, 4 mM KCl, 1 mM MgCl2, and 10 mM HEPES (pH 7.4 with NaOH). […] All recordings were made at room temperature (22-24° C.) using MultiClamp 700B amplifier, Axo™ Digidata® 1550B and PCLAMP software (Molecular Devices). Nav channel currents were measured using the whole cell configuration of the patch clamp technique. All peptides were dissolved in the extracellular solution with 0.1% BSA. The effects of peptides were tested by using the same voltage protocol as showing in the Qpatch technique. Concentration response data were analysed using nonlinear least-squares fit of the log (inhibitor) vs. response (three parameters) (GraphPad Prism 7) to provide pIC50 determinations. The conductance-voltage (G-V) relationships obtained by using a protocol in which cells depolarised from a holding potential of −120 mV, stepping from −80 to +60 mV in 5 mV increments. Steady-state inactivation was obtained by applying a depolarisation to 0 mV following a series step potential from −120 mV to 20 mV in 5 mV increments. The V0.5 activation and inactivation were calculated by fitting data with Boltzmann equation in GraphPad Prism 7. Recovery from fast inactivation was obtained by applying a first 0 mV pulse followed by repolarisation to −120 mV and a second pulse to 0 mV after a period ranging from 0 to 50 ms, increasing in 1 ms increments. The time constant was calculated by fitting data with one-phase decay in GraphPad Prism 7.
A general note: In patch-clamp work, channel activity is measured electrically.

The target in series [2] is T1, hNav1.7. The series can be described thus: automated whole-cell patch clamp (QPatch 16X), HEK293-hNav1.7. The format is cell-based.
Series [3] is described as follows: acute in vivo toxicity after intravenous injection. Details: species or system mouse. As to the method: Acute in vivo toxicity. All animal experiments were performed in accordance with protocols approved by the Institutional Animal Care and Use Committee of MSK and followed the National Institute of Health guidelines for animal welfare. Six athymic nude mice 6-8 weeks old were purchased from Envigo RMS, Inc. An intravenous (IV) catheter was placed in tail vein of each mouse and they were anesthetized using Isoflurane (Novaplus, Telangana-India). Anesthesia was maintained using 1.0 to 1.5 L/min of Isoflurane and 2 L/min of oxygen. Three animals were injected with 68 μM, 7 nmol Hsp1a-FL in 100 μL of PBS, and the other three with […], of PBS. Animals were monitored using a rodent surgical monitor (Indus instruments, Houston, Tex.) before, during, and up to 16 minutes after injection. Numeric data points represent averaged values of 5±1 seconds duration. Data was collected before injection, 15 seconds after injection, 5 minutes after injection and 15 minutes after injection. Mouse body core temperature was measured by placing a rectal probe and electronically regulated via a surgical platform. The high-resolution electrocardiogram (EKG) was measured by placing non-invasive electrodes on the 4 paws and electrical contact was assured using a conducting gel (Electrode cream, Indus instruments, Houston, Tex.). Heart rate was automatically calculated from the R-R peaks derived from the EKG signal. Peripheral capillary oxygen saturation (SpO2) was non-invasively measured by placing a clip sensor on the animal's left thigh.
Statistical Analysis. Data were statistically analyzed by generalized estimating equations followed by LSD post hoc test when appropriate using SPSS 23.0. During animal toxicity studies, data points representing loss of signal were excluded from the analysis. Loss of signal was defined by a brief contact loss between the monitoring equipment and the mice (creating a “false” zero or −1 result). Loss of signal was corrected by placing the electrode in close contact to the mice. Average and standard deviations were calculated for each mouse.
Unless otherwise stated, data points represent mean values and error bars represent the standard deviation of biological replicates (mean±SEM). All p-values were calculated using a Student's unpaired t-test. Statistical significance was considered for p-values<0.05 and as follows: ns=not significant, *p<0.05, **p<0.01, ***p<0.001. Mann-Whitney tests were used for analysis of the unpaired samples (e.g. vital signs in mice injected with Hsp1a and mice from the control group) and the Wilcoxon test was used for analysis of paired samples (e.g. vital signs from same mouse before and after injection). Statistical significance was determined with alpha=0.05. Analysis and figures were prepared in GraphPad Prism 8.

In the next series the target is T2, hNav1.6 (Homo sapiens, UniProt Q9UQD0).
T2 construct: host or cells: HEK293
T2 sequence (Q07699 19-218): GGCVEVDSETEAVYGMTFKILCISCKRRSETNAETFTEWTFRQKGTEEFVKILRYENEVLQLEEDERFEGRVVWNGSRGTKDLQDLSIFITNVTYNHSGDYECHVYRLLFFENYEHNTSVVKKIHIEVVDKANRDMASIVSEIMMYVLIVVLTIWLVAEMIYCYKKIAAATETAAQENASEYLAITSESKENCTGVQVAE
T2 sequence (Q9UQD0 whole entry): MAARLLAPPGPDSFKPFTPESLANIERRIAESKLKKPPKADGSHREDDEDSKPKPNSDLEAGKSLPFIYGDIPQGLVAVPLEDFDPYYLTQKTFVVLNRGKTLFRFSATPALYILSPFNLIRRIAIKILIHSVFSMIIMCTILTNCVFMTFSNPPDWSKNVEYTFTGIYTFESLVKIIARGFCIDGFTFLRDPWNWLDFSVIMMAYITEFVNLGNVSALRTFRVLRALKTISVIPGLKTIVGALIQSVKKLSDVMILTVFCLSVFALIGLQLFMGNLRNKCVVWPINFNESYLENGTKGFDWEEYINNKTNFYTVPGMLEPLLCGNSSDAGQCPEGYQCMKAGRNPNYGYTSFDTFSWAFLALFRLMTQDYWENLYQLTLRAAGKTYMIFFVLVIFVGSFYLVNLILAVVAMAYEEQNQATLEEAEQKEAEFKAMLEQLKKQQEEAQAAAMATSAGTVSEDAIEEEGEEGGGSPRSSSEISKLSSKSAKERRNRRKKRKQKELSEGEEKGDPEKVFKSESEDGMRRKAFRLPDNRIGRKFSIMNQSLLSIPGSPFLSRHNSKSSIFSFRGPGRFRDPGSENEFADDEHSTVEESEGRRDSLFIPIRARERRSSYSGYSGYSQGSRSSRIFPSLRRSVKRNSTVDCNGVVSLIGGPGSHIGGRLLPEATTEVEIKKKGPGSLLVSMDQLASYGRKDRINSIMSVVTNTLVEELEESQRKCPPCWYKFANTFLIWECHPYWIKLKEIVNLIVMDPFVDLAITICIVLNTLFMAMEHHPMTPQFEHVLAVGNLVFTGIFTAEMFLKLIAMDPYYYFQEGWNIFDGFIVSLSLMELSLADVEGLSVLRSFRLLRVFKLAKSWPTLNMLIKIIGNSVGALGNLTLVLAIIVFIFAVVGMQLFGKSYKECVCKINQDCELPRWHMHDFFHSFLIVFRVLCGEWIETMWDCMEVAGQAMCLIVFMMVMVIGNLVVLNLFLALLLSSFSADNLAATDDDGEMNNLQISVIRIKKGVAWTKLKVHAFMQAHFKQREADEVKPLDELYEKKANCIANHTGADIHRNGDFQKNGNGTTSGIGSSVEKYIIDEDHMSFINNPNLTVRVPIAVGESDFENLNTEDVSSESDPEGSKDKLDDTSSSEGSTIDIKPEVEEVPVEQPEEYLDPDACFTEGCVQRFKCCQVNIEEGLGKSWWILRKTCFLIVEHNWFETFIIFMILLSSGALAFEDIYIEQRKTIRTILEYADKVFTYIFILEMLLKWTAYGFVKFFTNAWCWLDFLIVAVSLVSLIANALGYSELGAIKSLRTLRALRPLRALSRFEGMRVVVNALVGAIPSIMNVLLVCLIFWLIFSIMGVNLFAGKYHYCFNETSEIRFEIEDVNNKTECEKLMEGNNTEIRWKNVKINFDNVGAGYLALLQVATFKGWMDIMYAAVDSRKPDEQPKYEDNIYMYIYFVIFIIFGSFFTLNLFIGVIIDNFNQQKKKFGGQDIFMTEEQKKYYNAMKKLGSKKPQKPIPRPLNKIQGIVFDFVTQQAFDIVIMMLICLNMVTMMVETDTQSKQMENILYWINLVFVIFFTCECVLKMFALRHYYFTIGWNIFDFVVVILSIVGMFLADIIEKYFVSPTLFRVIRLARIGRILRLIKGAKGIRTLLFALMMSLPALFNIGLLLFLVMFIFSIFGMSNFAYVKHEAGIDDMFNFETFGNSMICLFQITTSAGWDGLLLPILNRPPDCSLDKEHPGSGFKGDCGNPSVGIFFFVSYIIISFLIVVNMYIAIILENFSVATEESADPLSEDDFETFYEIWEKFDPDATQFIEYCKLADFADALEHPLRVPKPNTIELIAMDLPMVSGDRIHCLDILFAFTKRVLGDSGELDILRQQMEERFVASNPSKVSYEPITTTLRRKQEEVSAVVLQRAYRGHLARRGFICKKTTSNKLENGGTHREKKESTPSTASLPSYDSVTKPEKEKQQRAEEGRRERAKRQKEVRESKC
The series can be described thus: automated whole-cell patch clamp (QPatch 16X), HEK293-hNav1.6. The format is cell-based.

The target in another series is T3, hNav1.5 (Homo sapiens, UniProt Q14524).
T3 construct: host or cells: HEK293
Kind of series: automated whole-cell patch clamp (QPatch 16X), HEK293-hNav1.5. The format is cell-based.

A further series deals with T4, hNav1.2 (Homo sapiens, UniProt Q99250).
T4 construct: host or cells: HEK293
T4 sequence (Q07699 19-218): as the sequence (Q07699 19-218) above
T4 sequence (Q99250 whole entry): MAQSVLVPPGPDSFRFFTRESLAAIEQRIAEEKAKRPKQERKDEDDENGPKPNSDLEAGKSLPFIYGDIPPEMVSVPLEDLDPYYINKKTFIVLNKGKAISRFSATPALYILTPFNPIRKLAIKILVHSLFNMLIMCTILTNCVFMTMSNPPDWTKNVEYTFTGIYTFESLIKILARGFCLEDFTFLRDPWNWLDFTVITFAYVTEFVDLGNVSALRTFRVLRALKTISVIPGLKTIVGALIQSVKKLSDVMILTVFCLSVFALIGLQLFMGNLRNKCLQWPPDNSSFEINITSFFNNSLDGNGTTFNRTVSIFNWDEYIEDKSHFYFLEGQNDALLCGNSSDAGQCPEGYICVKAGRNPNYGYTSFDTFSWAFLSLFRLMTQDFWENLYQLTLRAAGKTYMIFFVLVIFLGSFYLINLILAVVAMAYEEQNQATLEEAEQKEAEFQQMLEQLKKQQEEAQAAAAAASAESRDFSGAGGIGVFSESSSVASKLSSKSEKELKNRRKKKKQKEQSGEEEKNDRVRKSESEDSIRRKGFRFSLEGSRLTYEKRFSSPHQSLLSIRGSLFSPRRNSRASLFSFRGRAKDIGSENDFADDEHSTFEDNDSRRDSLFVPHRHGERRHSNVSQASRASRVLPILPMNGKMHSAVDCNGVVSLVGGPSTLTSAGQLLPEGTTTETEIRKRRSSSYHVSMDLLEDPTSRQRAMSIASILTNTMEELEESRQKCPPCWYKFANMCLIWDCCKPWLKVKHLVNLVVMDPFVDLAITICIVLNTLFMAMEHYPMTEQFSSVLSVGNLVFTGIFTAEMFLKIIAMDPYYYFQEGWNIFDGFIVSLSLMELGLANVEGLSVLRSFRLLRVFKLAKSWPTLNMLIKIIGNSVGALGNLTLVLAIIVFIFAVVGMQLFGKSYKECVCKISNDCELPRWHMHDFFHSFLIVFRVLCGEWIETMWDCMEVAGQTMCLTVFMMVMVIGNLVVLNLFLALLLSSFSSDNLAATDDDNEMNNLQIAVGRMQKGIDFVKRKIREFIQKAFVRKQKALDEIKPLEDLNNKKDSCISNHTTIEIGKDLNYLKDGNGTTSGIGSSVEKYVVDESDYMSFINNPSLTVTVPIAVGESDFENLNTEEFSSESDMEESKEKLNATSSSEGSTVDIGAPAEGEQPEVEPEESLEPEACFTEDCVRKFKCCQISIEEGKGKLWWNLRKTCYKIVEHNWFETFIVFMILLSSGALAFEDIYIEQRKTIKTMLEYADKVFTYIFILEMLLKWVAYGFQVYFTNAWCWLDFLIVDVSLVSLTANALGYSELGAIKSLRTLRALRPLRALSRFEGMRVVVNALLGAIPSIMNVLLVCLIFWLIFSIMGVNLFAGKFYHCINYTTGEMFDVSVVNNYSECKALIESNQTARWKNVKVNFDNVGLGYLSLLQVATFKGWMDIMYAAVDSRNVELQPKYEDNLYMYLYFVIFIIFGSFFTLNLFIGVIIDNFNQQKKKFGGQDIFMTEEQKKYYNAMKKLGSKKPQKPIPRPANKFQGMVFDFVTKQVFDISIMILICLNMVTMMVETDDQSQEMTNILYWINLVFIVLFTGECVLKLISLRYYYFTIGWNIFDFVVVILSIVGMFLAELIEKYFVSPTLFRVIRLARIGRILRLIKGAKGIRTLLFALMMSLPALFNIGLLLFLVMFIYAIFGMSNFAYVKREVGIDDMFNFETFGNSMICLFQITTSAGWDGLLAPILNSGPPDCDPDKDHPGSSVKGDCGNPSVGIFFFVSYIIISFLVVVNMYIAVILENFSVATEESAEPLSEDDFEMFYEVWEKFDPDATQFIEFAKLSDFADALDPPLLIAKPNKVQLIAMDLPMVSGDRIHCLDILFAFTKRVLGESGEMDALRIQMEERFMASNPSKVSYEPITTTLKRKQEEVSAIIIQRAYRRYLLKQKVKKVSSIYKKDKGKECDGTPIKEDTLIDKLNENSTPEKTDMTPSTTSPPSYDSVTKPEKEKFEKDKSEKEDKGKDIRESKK
The series can be described thus: automated whole-cell patch clamp (QPatch 16X), HEK293-hNav1.2. Format: cell-based.

The conditions of series [4]: 10 μM, 37° C.
The mark [5] stands for this setting: 60 nM, compared to vehicle, P<0.01.
The mark [6] stands for this setting: before, 15 seconds, 5 and 15 minutes after injection.

Bounds are passed on as bounds.

`CC[C@H](C)[C@H](NC(=O)[C@H](CCCCN)NC(=O)[C@@H]1CSSC[C@@H]2NC(=O)[C@@H]3CCCN3C(=O)[C@H](CCCNC(=N)N)NC(=O)[C@H](CCC(=O)O)NC(=O)[C@H](CO)NC(=O)[C@H](CC(=O)O)NC(=O)[C@@H]3CSSC[C@H](NC(=O)[C@H](C(C)C)NC(=O)[C@H](CC(C)C)NC(=O)CNC(=O)[C@H](CCC(=O)O)NC(=O)[C@H](CSSC[C@H](NC(=O)[C@@H](N)Cc4ccc(O)cc4)C(=O)N[C@@H](CCC(N)=O)C(=O)N[C@@H](CCCCN)C(=O)N[C@@H](Cc4ccccc4)C(=O)N[C@@H](CC(C)C)C(=O)N[C@@H](Cc4c[nH]c5ccccc45)C(=O)N[C@@H]([C@@H](C)O)C(=O)N3)NC2=O)C(=O)N[C@@H](CCCNC(=N)N)C(=O)N[C@@H](CC(C)C)C(=O)N[C@@H](Cc2c[nH]c3ccccc23)C(=O)N1)C(=O)N[C@@H](CC(N)=O)C(N)=O` [sHsp1a]: the “V0.5 inactivation Δ” value at hNav1.7 [1] (setting [5]) was −11.62 mV. In addition, on hNav1.7 [1] (setting [5]), the “Δτ, recovery from fast inactivation” value was found to be 1 ms. Besides, the “time for currents to recover following washout in peptide-free solution” value at hNav1.7 [1] (after application of 200 nM for 4 min) was about 10 min. At hNav1.7 [1] (in presence of 60 nM, n=5, mean±SEM), the “time constant τ of recovery from fast inactivation” value was determined as 5.03 ± 0.43 ms. This molecule had a hNav1.7 currents blocked at hNav1.7 [2] (at 200 nM) of 70%. In addition, the inhibition (in general, the drop in the measured response relative to a control, in per cent) at 2 µM on hNav1.7 [2] (at 2 μM, read-out: current inhibition hNav1.7) was 75%; at hNav1.6 (at 2 μM, read-out: max. current inhibition hNav1.6) it was under 50%; on hNav1.5 (at 2 μM, read-out: max. current inhibition hNav1.5), under 50%; at hNav1.2 (at 2 μM, read-out: max. current inhibition hNav1.2), 60%. For the same molecule, the IC50 at hNav1.7 [2] (mean±S.E.M, read-out: pIC50 on hNav1.7 (converted)) is 10.5 nM; at hNav1.6 (read-out: pIC50 on hNav1.6 (converted)), over 1000 nM; on hNav1.5 (read-out: pIC50 on hNav1.5 (converted)) it was over 1000 nM; on hNav1.2 (mean±S.E.M, read-out: pIC50 on hNav1.2 (converted)) it was 302 nM. Further, in series [3] (setting [6]), the “effect on heart muscle (heart rate)” value is reported as “no effect”. For the same molecule, the “effect on the respiratory musculature (oxygen saturation in peripheral blood)” value in series [3] (setting [6]) is on record as “no effect”. Further, the “effect on mouse body temperature” value in series [3] (mouse, in vivo) is recorded as “no effect”. Also, the “inhibition of hNav1.6 currents” value on hNav1.6 (at 200 nM) was “did not show any significant inhibition”. For the same molecule, the “inhibition of hNav1.5 currents” value against hNav1.5 (at 200 nM) is “did not show any significant inhibition”. Also, at hNav1.5 (at 2 μM), the “sensitivity of hNav1.5” value is on record as “insensitive”. For the same molecule, the hNav1.2 currents blocked on hNav1.2 (at 200 nM) is given as 30%. Further, the “amount in human serum after 24 hours” value in series [4] is “remained constant”.
